Experimental data from ChEMBL document CHEMBL1147619, “Syntheses and EGFR kinase inhibitory activity of 6-substituted-4-anilino [1,7] and [1,8] naphthyridine-3-carbonitriles” (Bioorg Med Chem Lett, 2004).
Values after ≈ are worked out from the molar mass of the structure shown.

Columns and labels:
[1] = target: T1, Epidermal growth factor receptor (Homo sapiens, UniProt P00533); assay: Inhibition of epidermal growth factor receptor kinase autophosphorylation
[2] = target: T1, Epidermal growth factor receptor; assay: Inhibition of peptide substrate phosphorylation by epidermal growth factor receptor
SK-BR-3 = assay: Inhibition of SKBr3 human carcinoma cell proliferation; type: functional, cell-based
A-431 = assay: Inhibition of A431 human carcinoma cell proliferation; type: functional, cell-based
SW-620 = assay: Inhibition of SW620 human carcinoma cell proliferation; type: functional, cell-based

T1 sequence (P00533 whole entry): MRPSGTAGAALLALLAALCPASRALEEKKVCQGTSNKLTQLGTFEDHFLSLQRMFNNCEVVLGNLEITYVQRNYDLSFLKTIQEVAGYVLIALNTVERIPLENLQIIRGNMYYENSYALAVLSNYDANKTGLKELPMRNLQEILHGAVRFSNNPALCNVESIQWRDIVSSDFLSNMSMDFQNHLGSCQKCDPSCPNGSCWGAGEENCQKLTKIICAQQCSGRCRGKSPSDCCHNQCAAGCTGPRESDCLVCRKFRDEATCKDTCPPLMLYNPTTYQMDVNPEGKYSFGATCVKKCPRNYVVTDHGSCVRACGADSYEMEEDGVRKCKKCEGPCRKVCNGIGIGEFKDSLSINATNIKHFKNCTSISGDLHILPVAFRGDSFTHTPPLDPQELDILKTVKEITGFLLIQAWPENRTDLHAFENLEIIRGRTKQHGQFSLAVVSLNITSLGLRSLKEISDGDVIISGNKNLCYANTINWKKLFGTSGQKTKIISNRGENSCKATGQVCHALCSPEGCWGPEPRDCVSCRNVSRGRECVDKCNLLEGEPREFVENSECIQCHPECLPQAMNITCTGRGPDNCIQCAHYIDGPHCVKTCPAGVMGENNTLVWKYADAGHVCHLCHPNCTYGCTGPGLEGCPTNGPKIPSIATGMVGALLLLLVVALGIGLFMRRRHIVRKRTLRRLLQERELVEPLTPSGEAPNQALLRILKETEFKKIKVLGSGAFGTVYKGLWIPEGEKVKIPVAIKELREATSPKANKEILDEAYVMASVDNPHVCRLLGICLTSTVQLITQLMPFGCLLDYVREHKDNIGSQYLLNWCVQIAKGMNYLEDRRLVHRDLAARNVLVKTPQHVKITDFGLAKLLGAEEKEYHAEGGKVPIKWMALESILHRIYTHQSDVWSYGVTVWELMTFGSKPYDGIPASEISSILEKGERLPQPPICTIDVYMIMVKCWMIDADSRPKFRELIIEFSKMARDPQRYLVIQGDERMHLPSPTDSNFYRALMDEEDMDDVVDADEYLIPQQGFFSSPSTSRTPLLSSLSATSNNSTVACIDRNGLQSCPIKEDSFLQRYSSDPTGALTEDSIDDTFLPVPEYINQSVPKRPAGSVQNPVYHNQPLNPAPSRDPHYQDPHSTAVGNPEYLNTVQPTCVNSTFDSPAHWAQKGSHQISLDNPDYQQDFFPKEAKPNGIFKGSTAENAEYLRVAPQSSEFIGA

SMILES | IC50 [1] [nM] | IC50 [2] [nM] | IC50 (SK-BR-3) [µg/mL] | IC50 (A-431) [µg/mL] | IC50 (SW-620) [µg/mL]
C=CC(=O)Nc1ccc2ncc(C#N)c(Nc3cccc(Br)c3)c2c1 | 86.9 | 9.7 |  |  | 
C=CC(=O)Nc1cnc2ncc(C#N)c(Nc3cccc(Br)c3)c2c1 | 976 | 375 |  |  | 
CC#CC(=O)Nc1ccc2ncc(C#N)c(Nc3cccc(Br)c3)c2c1 | > 1000 | 259 |  |  | 
CC#CC(=O)Nc1cnc2ncc(C#N)c(Nc3ccc(F)c(Cl)c3)c2c1 | 6790 | 3760 |  |  | 
CN(C)C/C=C/C(=O)Nc1ccc2ncc(C#N)c(Nc3cccc(Br)c3)c2c1 | 123 | 37.2 | 0.089 (≈ 0.198 µM) | 0.23 (≈ 0.511 µM) | 2.8 (≈ 6.22 µM)
CN(C)CCOc1cc2c(Nc3cccc(Br)c3)c(C#N)cnc2cn1 | > 10000 | > 10000 |  |  | 
CN(C)C/C=C/C(=O)Nc1cc2c(Nc3cccc(Br)c3)c(C#N)cnc2cn1 | 8.6 | 1.9 | 0.036 (≈ 0.0798 µM) | 0.088 (≈ 0.195 µM) | 0.356 (≈ 0.789 µM)
CN(C)CCOc1cc2c(Nc3ccc(F)c(Cl)c3)c(C#N)cnc2cn1 | > 10000 | > 10000 |  |  | 
CC#CC(=O)Nc1cnc2ncc(C#N)c(Nc3cccc(Br)c3)c2c1 | > 10000 | 6270 |  |  | 
CC#CC(=O)Nc1ccc2ncc(C#N)c(Nc3ccc(F)c(Cl)c3)c2c1 | 1030 | 330 |  |  | 
CN(C)C/C=C/C(=O)Nc1cnc2ncc(C#N)c(Nc3cccc(Br)c3)c2c1 | 4130 | 2040 | 4.83 (≈ 10.7 µM) | 2.76 (≈ 6.12 µM) | > 5
